Publication PMC7011973 (Journal of Enzyme Inhibition and Medicinal Chemistry, 2017)

What was measured:
BsuCA2 (BsCA2) = type: biochemical, Brucella suis; conditions: read-out: KI (nM) ^* / BsuCA2^b
BsuCA1 (BsCA1) = type: biochemical, Brucella suis; conditions: read-out: KI (nM) ^* / BsuCA1^b

| Structure (SMILES) | Ki (BsuCA2 (BsCA2)) | Ki (BsuCA1 (BsCA1)) |
| --- | --- | --- |
| NS(=O)(=O)c1cnccc1N1CCN(Cc2ccc3c(c2)OCO3)CC1 [compound 11, 11] | 336 nM | 36 nM |
| Cc1cc(C)n(-c2ccncc2S(N)(=O)=O)n1 [compound 13, 13] | 780 nM | 38 nM |
| NS(=O)(=O)c1cnccc1N1CCN(Cc2ccccc2)CC1 [compound 10, 10] | 97 nM | 34 nM |
| CCCCc1c(C)nn(-c2ccncc2S(N)(=O)=O)c1C [compound 15, 15] |  | 47 nM |
| CCOC(=O)CCc1c(C)nn(-c2ccncc2S(N)(=O)=O)c1C [compound 16, 16] | 706 nM | 41 nM |
| Cc1nn(-c2ccncc2S(N)(=O)=O)c(C)c1C [compound 14, 14] |  | 45 nM |
| CCc1cc(CC)n(-c2ccncc2S(N)(=O)=O)n1 [compound 17, 17] | 420 nM |  |
| NS(=O)(=O)c1cnccc1N1CCC(Cc2ccccc2)CC1 [compound 12, 12] |  | 40 nM |
